Data taken from patent US20160128321A1, “Ladder-Frame Polyether Conjugates” (priority 2010, published 2016).
Where two headings read alike, the source gives them in different places.

How the values were obtained:
rat brain synaptosomes = experiment: Receptor binding assays
MCF7 = system: MCF7; set-up: key to the marks not given beside the values
NL20 = system: NL20; set-up: key to the marks not given beside the values
MDCK = system: MDCK; set-up: key to the marks not given beside the values
[1] = SJCRH30 cells, 400 nM, 1 hour at 37° C., 20× objective, Example 15C

C=C/C=C\CC[C@H]1O[C@H]2CC[C@@]3(C)O[C@H]4[C@@H](O)C[C@@]5(C)O[C@@H](CC/C=C(C)/C(C)=C/C=O)[C@@H](C)C[C@H]5O[C@@H]4C[C@@H]3O[C@@H]2CC[C@@]1(C)O [brevenal] was tested. Which “affinity (binding to rat brain synaptosomes)” value (rat brain synaptosomes; parent compound, first value printed for brevenal) did it give?
Its value is 400 to 800 nM.

COc1cccc2c1C(=O)c1c(O)c3c(c(O)c1C2=O)C[C@@](O)(C(C)=O)C[C@@H]3O[C@H]1C[C@H](N)[C@H](O)[C@H](C)O1 [Daunorubicin] was tested. Which level of fluorescence (SJCRH30; [1]) did it give?
The level of fluorescence was “−”.

Which “affinity (binding to rat brain synaptosomes)” value (rat brain synaptosomes) does the source give for C=C(C=O)C[C@@H]1C[C@H](O)[C@]2(C)O[C@@H]3C[C@@H]4O[C@@H]5C[C@]6(C)O[C@]7(C)CC[C@@H]8O[C@@H]9C[C@]%10(C)O[C@@H]%11C(C)=CC(=O)O[C@H]%11C[C@H]%10O[C@H]9C[C@@H](C)[C@H]8O[C@H]7C[C@H]6O[C@H]5C/C=C\[C@H]4O[C@H]3C[C@H]2O1 [brevetoxin] here?
The value was 2-10 nm.

Which results are given for Cc1cc(C)n2c1C=C1C=CC(CCC(=O)NN)=[N+]1[B-]2(F)F [BODIPY ®, 4,4-difluoro-5,7-dimethyl-4-bora-3a,4a-diaza-s-indacene-3-propionic acid, hydrazide]?
level of fluorescence (CHO-K1): −; level of fluorescence (SJCRH30): +; level of fluorescence (HEK293): −; level of fluorescence (184B5): +; level of fluorescence (MCF7): ++; level of fluorescence (T47D): +; level of fluorescence (BT549): +; level of fluorescence (A549): −; level of fluorescence (DMS-114): −; level of fluorescence (NL20): ++; level of fluorescence (MDCK): ++

For CN(C)c1ccc2c(-c3cc(C(=O)[O-])ccc3C(=O)O)c3ccc(=[N+](C)C)cc-3oc2c1 [Example 6-TAMRA, 6-carboxytetramethylrhodamine], which level of fluorescence (SJCRH30; [1]) is on record?
Its level of fluorescence is “−”.
